Data taken from ChEMBL document CHEMBL1135220, “Novel, potent non-covalent thrombin inhibitors incorporating p(3)-lactam scaffolds” (Bioorg Med Chem Lett, 2002).

Columns and labels:
[1] = Maximum plasma concentration was determined in dogs at 1 mg/kg oral dosing; 0.05-0.2 ug/mL; assay type: ADME, organism-based, Canis lupus familiaris; set-up: dose 1 mg/kg, route oral; details: dog
Trypsin = Trypsin (Homo sapiens, UniProt P07477+P07478+P35030); assay: Inhibitory constant against trypsin determined in Vitro; assay type: protein assay
Prothrombin = Prothrombin (Homo sapiens, UniProt P00734); assay: Inhibitory constant against human thrombin (FIIa) determined in vitro
Coagulation factor X [2] = molecular target: T1, Coagulation factor X (Homo sapiens, UniProt P00742); assay: Inhibitory constant against human Coagulation factor Xa determined in Vitro
T1 sequence (P00742 41-179 limits assumed): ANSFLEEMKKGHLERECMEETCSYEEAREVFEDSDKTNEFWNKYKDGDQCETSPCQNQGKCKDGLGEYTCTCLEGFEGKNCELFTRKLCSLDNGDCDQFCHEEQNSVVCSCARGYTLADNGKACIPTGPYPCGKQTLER
T1 sequence (P00742 235-488 limits assumed): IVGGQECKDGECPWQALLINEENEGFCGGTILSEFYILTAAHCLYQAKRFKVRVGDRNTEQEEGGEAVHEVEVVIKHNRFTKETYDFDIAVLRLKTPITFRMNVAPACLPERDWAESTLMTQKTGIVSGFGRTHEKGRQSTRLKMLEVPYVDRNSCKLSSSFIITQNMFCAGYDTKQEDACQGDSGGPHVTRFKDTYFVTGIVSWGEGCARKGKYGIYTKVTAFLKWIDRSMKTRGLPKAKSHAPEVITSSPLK

[3] = Area Under Curve for the compound was determined in dogs at 1 mg/kg oral dosing; 25-50 ug min/mL; assay type: ADME, organism-based, Canis lupus familiaris; set-up: dose 1 mg/kg, route oral; details: dog, in vivo
[4] = Half life in dogs at 1 mg/kg oral dosing; 35-100 min; assay type: ADME, organism-based, Canis lupus familiaris; set-up: dose 1 mg/kg, route oral; details: dog, in vivo
[5] = Oral bioavailability in dog (fasted); assay type: ADME, organism-based, Canis lupus familiaris; details: in vivo
[6] = Maximum plasma concentration was determined as in dogs at 1 mg/kg oral dosing Cmax; 0.05-0.2 ug/mL; assay type: ADME, organism-based, Canis lupus familiaris; set-up: dose 1 mg/kg, route oral; details: dog
Coagulation factor X [7] = molecular target: T1, Coagulation factor X; assay: Inhibitory constant against human Coagulation factor Xa determined in Vitro; Inact. means Inactive
Serine protease 1 = Serine protease 1 (Homo sapiens, UniProt P07477); assay: Inhibitory constant against trypsin determined in Vitro; Inact. means Inactive
Sequence of Serine protease 1 (P07477 whole entry): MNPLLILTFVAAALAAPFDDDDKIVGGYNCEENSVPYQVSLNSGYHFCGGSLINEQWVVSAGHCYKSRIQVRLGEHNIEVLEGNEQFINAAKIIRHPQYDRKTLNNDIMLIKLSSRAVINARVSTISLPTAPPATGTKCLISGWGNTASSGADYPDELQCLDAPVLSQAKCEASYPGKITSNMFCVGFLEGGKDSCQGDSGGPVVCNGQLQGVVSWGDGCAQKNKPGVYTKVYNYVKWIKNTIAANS

| Compound | Cmax [1] [ng/mL] | Ki (Trypsin) [µM] | Ki (Prothrombin) [µM] | Ki (Coagulation factor X [2]) [µM] | AUC [3] [ng·h/mL] | half-life [4] [min] | bioavailability [5] [%] | Cmax [6] [ng/mL] | Ki (Coagulation factor X [7]) | Ki (Serine protease 1) |
| --- | --- | --- | --- | --- | --- | --- | --- | --- | --- | --- |
| N=C(N)c1ccc(CC(=O)CN2CCCC[C@H](NS(=O)(=O)Cc3ccccc3)C2=O)cc1 | ~50 | 0.0846 | 0.0194 | 0.315 | ~417 | ~35 | – | – | – | – |
| N=C(N)NCCC[C@@H](C=O)NC(=O)CN1CCCC[C@H](NS(=O)(=O)Cc2ccccc2)C1=O | – | 0.018 | – | – | – | – | 66 | – | – | – |
| COC(=O)c1ccccc1CS(=O)(=O)N[C@H]1CCCCN(CC(=O)N[C@@H](CCCNC(=N)N)C(=O)O)C1=O | – | – | 0.00095 | 0.093 | – | – | – | – | – | – |
| N=C(N)c1ccc(CC(=O)CN2CCCC[C@H](NS(=O)(=O)c3ccccc3)C2=O)cc1 | ~50 | 0.0083 | 0.0194 | > 0.338 | ~417 | ~35 | – | – | – | – |
| N=C(N)N1CCC(CC(=O)[C@@H]2Cc3cccc4c3N2C(=O)[C@@H](NS(=O)(=O)c2ccc3c(c2)CCO3)CC4)CC1 | – | 0.0025 | 0.0108 | 0.0492 | ~417 | ~35 | – | ~50 | – | – |
| O=C(Cc1ccc2[nH]ncc2c1)CN1CCCC[C@H](NS(=O)(=O)c2ccc3c(c2)CCO3)C1=O | ~50 | – | 0.283 | – | ~417 | ~35 | – | – | Not Active | Not Active |
| Cc1nc(N)ccc1CC(=O)CN1CCCC[C@H](NS(=O)(=O)Cc2ccccc2)C1=O | ~50 | 1.678 | 0.0929 | – | ~417 | ~35 | – | – | Not Active | – |
| N/C(=N\O)c1ccc(CC(=O)CN2C(=O)[C@@H](NS(=O)(=O)c3ccc4c(c3)CCO4)CCc3ccccc32)cc1 | ~50 | – | > 0.397 | – | ~417 | ~35 | – | – | Not Active | Not Active |
| N=C(N)c1ccc(CC(=O)CN2CCCC[C@H](NS(=O)(=O)c3ccc4c(c3)CCO4)C2=O)c(F)c1 | ~50 | 0.0076 | 0.0298 | > 0.338 | ~417 | ~35 | – | – | – | – |
| Cc1nc(N)ccc1CC(=O)CN1CCCC[C@H](NS(=O)(=O)c2ccc3c(c2)CCO3)C1=O | ~50 | 1.678 | 0.0395 | > 0.338 | ~417 | ~35 | – | – | – | – |
| COc1ccc(S(=O)(=O)N[C@H]2CCCCN(CC(=O)Cc3ccc(C(=N)N)cc3)C2=O)cc1OC | ~50 | 0.0116 | 0.0133 | > 0.338 | ~417 | ~35 | – | – | – | – |
| N=C(N)N1CCC(CC(=O)CN2C(=O)[C@@H](NS(=O)(=O)c3ccc4c(c3)CCO4)CCc3ccccc32)CC1 | ~50 | – | 0.061 | – | ~417 | ~25 | – | – | Not Active | Not Active |
| COc1ccc(S(=O)(=O)N[C@H]2CCCCN(CC(=O)CC3CCN(C(=N)N)CC3)C2=O)cc1OC | ~50 | > 1.678 | 0.0857 | > 0.338 | ~417 | ~35 | – | – | – | – |
| COC(=O)c1ccccc1CS(=O)(=O)N[C@H]1CCCCN(CC(=O)N[C@H](C=O)CCCNC(=N)N)C1=O | – | 0.016 | – | – | – | – | 67 | – | – | – |
| N=C(N)N1CCC(CC(=O)CN2CCCC[C@H](NS(=O)(=O)c3ccc4c(c3)CCO4)C2=O)CC1 | ~50 | 0.8725 | 0.0238 | – | ~417 | ~35 | – | – | Not Active | – |
| N=C(N)c1ccc(CC(=O)CN2CCCC[C@H](NS(=O)(=O)c3ccc4ccccc4c3)C2=O)cc1 | ~50 | 0.0123 | 0.163 | > 0.338 | ~417 | ~35 | – | – | – | – |
| N=C(N)N1CCC(CC(=O)CN2CCCC[C@H](NS(=O)(=O)c3ccccc3)C2=O)CC1 | ~50 | 1.678 | 0.0714 | > 0.338 | ~417 | ~35 | – | – | – | – |
| COc1ccc(OC)c(S(=O)(=O)N[C@H]2CCCCN(CC(=O)Cc3ccc(C(=N)N)cc3)C2=O)c1 | ~50 | 0.0352 | 0.009 | > 0.338 | ~417 | ~35 | – | – | – | – |
| N=C(N)NCCC[C@H](NC(=O)CN1CCCC[C@H](NS(=O)(=O)Cc2ccccc2)C1=O)C(=O)O | – | – | 0.00054 | 0.04 | – | – | – | – | – | – |
| N[C@H]1CC[C@H](CC(=O)CN2CCCC[C@H](NS(=O)(=O)c3ccc4c(c3)CCO4)C2=O)CC1 | ~50 | > 1.678 | 0.0532 | – | ~417 | ~35 | – | – | Not Active | – |
| Cc1nc(N)ccc1CC(=O)CN1CCC[C@H](NS(=O)(=O)Cc2ccccc2)C1=O | ~50 | > 1.678 | > 0.397 | – | ~417 | ~35 | – | – | Not Active | – |
| COc1ccc(OC)c(S(=O)(=O)N[C@H]2CCCCN(CC(=O)CC3CCN(C(=N)N)CC3)C2=O)c1 | ~50 | – | 0.167 | – | ~417 | ~35 | – | – | Not Active | Not Active |
| N=C(N)c1ccc(CC(=O)CN2CCCC[C@H](NS(=O)(=O)c3ccc4c(c3)CCO4)C2=O)cc1 | ~50 | 0.0032 | 0.0062 | > 0.338 | ~417 | ~35 | – | – | – | – |
| N[C@H]1CC[C@H](CC(=O)CN2CCCC[C@H](NS(=O)(=O)Cc3ccccc3)C2=O)CC1 | ~50 | – | 0.195 | – | ~417 | ~35 | – | – | Not Active | Not Active |
| N=C(N)c1ccc(CC(=O)CN2CCCC[C@H](NS(=O)(=O)c3ccc4c(c3)CCO4)C2=O)s1 | ~50 | 0.0059 | 0.0006 | 0.0527 | ~417 | ~35 | – | – | – | – |
| N/C(=N\O)c1ccc(CC(=O)CN2CCCC[C@H](NS(=O)(=O)c3ccc4c(c3)CCO4)C2=O)cc1 | ~50 | 0.0805 | 0.24 | – | ~417 | ~35 | – | – | Not Active | – |
| N=C(N)c1ccc(CC(=O)CN2C(=O)[C@@H](NS(=O)(=O)c3ccc4c(c3)CCO4)CCc3ccccc32)cc1 | ~50 | 0.0195 | 0.0144 | > 0.338 | ~417 | ~35 | – | – | – | – |
